Common to all, as to type: cell-based, human
The subject of series [1] is KSHV-infected DMVEC. In words: XTT proliferation assay of PMO-loaded KSHV-infected DMVEC (Example 3). Conditions: PMO antisense silencing. The protocol: Proliferation assays, and loading of cells with PMOs. Proliferation of KSHV-infected DMVEC was quantified using an XTT (2,3-bis-(2-methoxy-4-nitro-5-sulfophenyl)-2H-tetrazolium-5-carboxanilide, disodium salt)-based assay. KSHV-infected cells were added to Primaria 96-well trays (Becton Dickinson) at 1×10^4 or 5×10^4 cells/well. XTT (Roche, Molecular Biochemicals, Indianapolis, Ind.) was added 48 hours later according to the manufacturer's instructions. Absorbance was read after 4 to 6 hours on a microplate reader.
Briefly, cells were plated in 96-well trays at a density approaching confluence (5×10^4 cells per well) in 100 μl of complete medium. PMOs were loaded the following day in a total of 100 μl (0.5 μl PMO, 0.5 μl EPEI, 49 μl H2O and 50 μl serum free medium) with reagent mixing as described by the manufacturer (GeneTools). Controls included a FITC PMO control oligonucleotide, EPEI only or H2O only. Each variable was performed in quadruplicate. Fresh complete medium was replaced 4 hours after loading. Cells were cultured for 4 days to allow for multi-layered cell growth post-confluence in the absence of any growth inhibition. XTT was added on day 4 of culture and the absorbance read 4 hrs later on a microplate reader. Cell proliferation (growth) values are given as percentage inhibition values, relative to cells without PMO, which are adjusted to 100%.
(In general: Tetrazolium dyes change colour on reduction, which living cells bring about.)

Series [2] concerns KSHV-infected DMVEC. As to the kind of experiment: Morpholino treatment and focus inhibition assay (Example 5). To be noted: for Foci/spindle morpholigical inhibition: PMO-treated KSHV-infected DMVEC vs control PMO, repeated three times. On the procedure: Morpholino Treatment and Focus Inhibition Assay. Phosphorodiamidate morpholino antisense oligonucleotides (PMO-AS) were designed and synthesized by Gene Tools LLC (Philomath, Oreg.) as a Special Delivery formulation, which pairs the morpholino with a partially complementary DNA oligo. A weakly basic delivery agent, Ethoxylated Polyethlyenimine (EPEI) is then used to deliver the anionic morpholino/DNA duplex into the cytosol. PMO-AS were received as sterile, lyophilized solids ([…]) that were solubilized in sterile water to obtain 0.5 mM stock solutions. To load a 35 mm dish of DMVEC at 90% confluence, 5 microl of stock solution was mixed with 5 microl of EPEI delivery solution in 590 μl H20 for 20 minutes at room temperature, and then mixed with 1.5 ml of serum-free RPMI medium. Endothelial growth media was removed from DMVEC, and replaced with the PMO-AS:EPEI:RPMI delivery solution for 3 hours in a 37° C. incubator. After incubation, cells were rinsed, complete endothelial growth medium was added and cells were cultured for up to 10 days without sub-culture, with media replacement every 48-72 hours. This protocol allows for the characteristic post-confluent growth and development of multi-layered spindle-cell aggregates (foci) in KSHV-infected cultures. Cells were monitored daily under the phase microscope to evaluate PMO-AS-inhibition of the development of these foci. At the conclusion of an assay, cells were fixed in 2% paraformaldehyde and stained with a MAB against CD31 (Dako; 1:100) followed by a goat-anti-mouse FITC second conjugate. Junctional staining of cells with CD31 accentuated the disorganized multi-layered nature of the spindle cell aggregates as composed to the flat, organized profile of contact-inhibited cells.
For these assays, KSHV-infected DMVEC monolayers were cultured to 90% confluence and then loaded with each PMO-AS, or maintained as unloaded controls. Cultures were observed daily until control cultures had developed prominent multi-layered aggregates of spindle cells. Typically this took 5-10 days with some variation between replicate experiments. Each experiment was performed at least three times and was performed with mock-infected as well as KSHV-infected DMVEC. As expected, mock-infected DMVEC maintained a quiescent monolayer at confluence, and PMO-AS treatment of uninfected cells occurred without any adverse effect. This observation allowed verification that none of the gene knockdown treatments induced non-specific toxicity in DMVEC. The majority of tested PMO-AS had no effect on the ability of KSHV-infected DMVEC to grow post-confluence and form disorganized, multi-layered foci (TABLE 2).

Series [3] deals with KSHV-infected DMVEC. In words: PMO antisense inhibition of KSHV-induced spindle cell and foci formation (Example 3). Conditions: for Extent of PMO-induced Inhibition of Spindle Cell Formation: KSHV-infected DMVEC loaded with gene-specific PMO antisense + EPEI; for Phenotype Inhibition (inhibition of spindle cell formation) / KSHV-induced spindle cell / foci formation (in words): KSHV-infected DMVEC; for Phenotype Inhibition (inhibition of spindle cell formation): gene-specific PMO antisense; for KSHV-induced spindle cell / foci formation (in words): PMO antisense, c-Kit: 1.25 nmol PMO + 2.5 μl EPEI per 35 mm dish. An excerpt:
Antisense Gene Silencing using PMOs. […] Silencing of such genes precluded progression into the transformed phenotype when silencing occurred prior to transformation, or induced reversion to the normal state when silencing occurred after induction of the transformed state (see TABLE 2 below).
Introduction of antisense PMO into KSHV-infected DMVEC. Antisense PMO molecules, for delivery purposes, are typically converted to a paired duplex together with a partially complementary cDNA oligonucleotide in the weakly basic delivery reagent ethoxylated polyethylenimine (EPEI) (Summerton, supra). The anionic complex binds to the cell surface, is taken up by endocytosis and eventually released into the cytosol. A protocol for optimum uptake of antisense PMO in immortalized DMVEC was developed using a modification of the EPEI method. Briefly, uninfected, immortalized DMVECs were incubated for 3 hours at 37° C. with 0.6 nmol/well FITC-PMO complexed with EPEI according to the manufacturer's instructions (GeneTools, LLC, One Summerton Way, Philomath, Oreg. 97370) (e.g., 1.25 nMol oligomer with 2.5 μl EPEI reagent per 35 mm dish, allowing for sufficient antisense uptake without non-specific EPEI-induced toxicity). The PMOs were labeled with FITC to allow for monitoring of loading efficiency by fluorescence microscopy.
Specifically, DMVEC were infected with KSHV, plated in 35 mm dishes and allowed to grow to about 90% confluence. For treatment, KSHV-infected cells were treated with the anti-c-Kit PMO-antisense oligomer-EPEI delivery reagent complex and incubated for 3 hours at 37° C. in serum-free medium to allow for oligomer uptake. A titration experiment testing a range of different oligomer/EPEI volumes was used to determine that loading 1.25 nmol oligomer with 2.5 μl EPEI reagent per 35 mm dish allowed efficient antisense uptake without non-specific EPEI-induced toxicity. Control (mock-treated) DMVEC cultures were loaded with EPEI reagent and sterile water or sterile water alone. Upon removal of the oligomer-EPEI solution, cell monolayers were rinsed in serum-free medium fed with complete medium and examined daily for one week by phase microscopy for evidence of phenotypic change.

Turning to “MFAP3: PMO antisense to MFAP3, TGAATAAGCAACAATGTAGCTTCAT (SEQ ID NO:24) (all phosphorodiamidate morpholino (PMO); delivered paired with partially complementary DNA oligo (Special Delivery, EPEI))”, the “inhibition of KSHV-induced cellular proliferation (in words)” value with KSHV-infected DMVEC [1] is “relatively little or no significant inhibition”. Further, the Foci/spindle morpholigical inhibition result with KSHV-infected DMVEC [2] is on record as “None”. In addition, in the series with KSHV-infected DMVEC [3], the “Extent of PMO-induced Inhibition of Spindle Cell Formation” value is reported as “none”; the “Phenotype Inhibition (inhibition of spindle cell formation)” value (from here on “Phenotype Inhibition”) was “no and None”; the “KSHV-induced spindle cell / foci formation (in words)” value was “little or no affect”.

As to “INSR: PMO antisense to INSR, GGGTCTCCTCGGATCAGGCGCG (SEQ ID NO:20) (all phosphorodiamidate morpholino (PMO); delivered paired with partially complementary DNA oligo (Special Delivery))”, in the series with KSHV-infected DMVEC [1], the “inhibition of KSHV-induced cellular proliferation (in words)” value is on record as “substantial inhibition”. In the series with KSHV-infected DMVEC [2] (PMO-AS, KSHV-infected DMVEC, 5-10 days), the “effect on phenotype (foci, spindle shape) in focus-inhibition assay (in words)” value was “marginal but reproducible effect on phenotype”. Moreover, the Foci/spindle morpholigical inhibition entry in the series on KSHV-infected DMVEC [2] is “Intermediate”. Also, in the series on KSHV-infected DMVEC [3], the “Extent of PMO-induced Inhibition of Spindle Cell Formation” value was “intermediate”, the “Phenotype Inhibition” value was “Intermediate” and the “KSHV-induced spindle cell / foci formation (in words)” value was “intermediate inhibitory effects”.

Turning to “K1AA0367: PMO antisense to KIAA0367, GTCAGTTTACTCATGTCATCTATTG (SEQ ID NO:18) (all phosphorodiamidate morpholino (PMO); delivered paired with partially complementary DNA oligo (Special Delivery))”, in the series on KSHV-infected DMVEC [1], the “inhibition of KSHV-induced cellular proliferation (in words)” value was “substantial inhibition”. In the series on KSHV-infected DMVEC [3], the “Extent of PMO-induced Inhibition of Spindle Cell Formation” value was “intermediate”, the “Phenotype Inhibition” value is on record as “Intermediate” and the “KSHV-induced spindle cell / foci formation (in words)” value was “intermediate inhibitory effects”.

On to “IGFBP2: PMO antisense to IGFBP2, GGCAGCCCACTCTCTCGGCAGCATG (SEQ ID NO:16) (all phosphorodiamidate morpholino (PMO); delivered paired with partially complementary DNA oligo (Special Delivery))”, for which the “inhibition of KSHV-induced cellular proliferation (in words)” value in the series on KSHV-infected DMVEC [1] was “substantial inhibition”. Moreover, in the series with KSHV-infected DMVEC [2], the Foci/spindle morpholigical inhibition entry is “Full”. Further, in the series with KSHV-infected DMVEC [3], the “Extent of PMO-induced Inhibition of Spindle Cell Formation” value is on record as “full”, the “Phenotype Inhibition” value is “Full” and the “KSHV-induced spindle cell / foci formation (in words)” value is “fully reversed spindle cell formation”.

Consider “LOX: PMO antisense to LOX, GGAGCACGGTCCAGGCGAAGCGCAT (SEQ ID NO:31) (all phosphorodiamidate morpholino (PMO); delivered paired with partially complementary DNA oligo (Special Delivery, EPEI))”, for which, in the series with KSHV-infected DMVEC [3], the “Extent of PMO-induced Inhibition of Spindle Cell Formation” value is on record as “full”, the “Phenotype Inhibition” value is recorded as “Full” and the “KSHV-induced spindle cell / foci formation (in words)” value is “fully reversed spindle cell formation”.

Consider “NOV: PMO antisense to NOV, AGCTCGTGCTCTGCACACTCTGCAT (SEQ ID NO:32) (all phosphorodiamidate morpholino (PMO); delivered paired with partially complementary DNA oligo (Special Delivery, EPEI))”, for which, in the series with KSHV-infected DMVEC [3], the “Extent of PMO-induced Inhibition of Spindle Cell Formation” value is reported as “full”, the “Phenotype Inhibition” value was “Full” and the “KSHV-induced spindle cell / foci formation (in words)” value is “fully reversed spindle cell formation”.

On to “LMO2: PMO antisense to LMO2, GCCGAGGACATTGGGGAGGGAGGCG (SEQ ID NO:23) (all phosphorodiamidate morpholino (PMO); delivered paired with partially complementary DNA oligo (Special Delivery, EPEI))”, for which the Foci/spindle morpholigical inhibition result in the series on KSHV-infected DMVEC [2] is reported as “None”. In the series on KSHV-infected DMVEC [3], the “Extent of PMO-induced Inhibition of Spindle Cell Formation” value is “none” and the “KSHV-induced spindle cell / foci formation (in words)” value is “little or no affect”.

Take Osteopontin: the “inhibition of KSHV-induced cellular proliferation (in words)” value in the series on KSHV-infected DMVEC [1] is listed as “relatively little or no significant inhibition”. The Foci/spindle morpholigical inhibition result in the series on KSHV-infected DMVEC [2] is reported as “None”. Moreover, the “Phenotype Inhibition” value in the series on KSHV-infected DMVEC [3] is “None”.

For “ANGPTL2: PMO antisense to ANGPTL2, AGCATGTCACGCACAGTGGCCTCAT (SEQ ID NO:33) (all phosphorodiamidate morpholino (PMO); delivered paired with partially complementary DNA oligo (Special Delivery))”, in the series with KSHV-infected DMVEC [3], the “Extent of PMO-induced Inhibition of Spindle Cell Formation” value is listed as “intermediate”, the “Phenotype Inhibition” value is “Intermediate” and the “KSHV-induced spindle cell / foci formation (in words)” value is listed as “intermediate inhibitory effects”.

Turning to “IFACTOR: PMO antisense to IFACTOR, AGCTTCATGTTGGAGGTGTTCG (SEQ ID NO:22) (all phosphorodiamidate morpholino (PMO); delivered paired with partially complementary DNA oligo (Special Delivery))”, in the series with KSHV-infected DMVEC [1], the “inhibition of KSHV-induced cellular proliferation (in words)” value is reported as “relatively little or no significant inhibition”. Besides, in the series with KSHV-infected DMVEC [3], the “Extent of PMO-induced Inhibition of Spindle Cell Formation” value is reported as “none”, the “Phenotype Inhibition” value is recorded as “None” and the “KSHV-induced spindle cell / foci formation (in words)” value is listed as “little or no affect”.

These data come from US20070072209A1, “Methods of treatment and diagnosis of Kaposi's sarcoma (KS) and KS related diseases” (priority 2005, published 2007).
